Results as given in US20080182798A1, “Novel effectors of dipeptidyl peptidase IV” (priority 1998, published 2008).
Structures can show the parent of a compound that is named as a salt.

Experiments:
[1] = target: dipeptidyl peptidase IV (Homo sapiens, UniProt P27487); assay: Action of effectors on the DP IV-catalysed hydrolysis of H-Gly-Pro-pNA; assay type: biochemical; settings: 0.4 mM H-Gly-Pro-pNA, 30° C., pH 7.6, ionic strength 0.125; for remaining activity at 10 µM / % Residual activity of DP IV in the presence of 10 μM effector: 10 μM effector; for remaining activity at 10 µM: read-out: % Residual activity of DP IV in the presence of 10 μM effector; for Ki: read-out: Effector affinity to DP IV: Ki
Sequence of dipeptidyl peptidase IV (P27487 whole entry, species assumed): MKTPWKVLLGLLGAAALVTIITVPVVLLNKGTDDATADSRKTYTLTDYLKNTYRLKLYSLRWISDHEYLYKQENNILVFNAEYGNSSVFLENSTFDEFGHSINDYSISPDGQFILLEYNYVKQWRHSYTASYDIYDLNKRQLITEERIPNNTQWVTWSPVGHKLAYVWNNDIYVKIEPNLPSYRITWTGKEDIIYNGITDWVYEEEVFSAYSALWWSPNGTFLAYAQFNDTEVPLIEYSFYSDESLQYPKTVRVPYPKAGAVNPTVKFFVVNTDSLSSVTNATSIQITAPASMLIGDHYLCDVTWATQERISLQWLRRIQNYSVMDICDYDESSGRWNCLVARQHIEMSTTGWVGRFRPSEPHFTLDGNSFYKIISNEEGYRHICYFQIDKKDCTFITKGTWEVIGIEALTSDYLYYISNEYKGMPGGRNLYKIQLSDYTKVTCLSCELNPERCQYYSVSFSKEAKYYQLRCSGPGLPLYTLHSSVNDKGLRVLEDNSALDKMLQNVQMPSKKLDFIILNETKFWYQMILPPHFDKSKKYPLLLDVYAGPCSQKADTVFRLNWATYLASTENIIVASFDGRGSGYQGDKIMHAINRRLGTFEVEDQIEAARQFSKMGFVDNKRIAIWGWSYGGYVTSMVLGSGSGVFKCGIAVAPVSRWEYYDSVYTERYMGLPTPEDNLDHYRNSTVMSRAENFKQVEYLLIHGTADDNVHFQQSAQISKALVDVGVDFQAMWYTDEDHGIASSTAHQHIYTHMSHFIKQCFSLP

[2] = tested on: circulating blood glucose; assay: Circulating blood glucose after oral administration with synchronous glucose tolerance test; assay type: in vivo, Wistar rat; settings: for Glucose concentration in % L-allo-Ile-thiazolidide-treated: oral 20 μM, within 60 min, % based on normoglycaemic values (control 100)
[3] = target: T1, peptide transporter Pep T1 (Homo sapiens, UniProt P46059); assay: Transport by the peptide transporter Pep T1; assay type: in vitro ADME; settings: in comparison with L-threo-isoleucyl thiazolidide
T1 sequence (P46059 1-708): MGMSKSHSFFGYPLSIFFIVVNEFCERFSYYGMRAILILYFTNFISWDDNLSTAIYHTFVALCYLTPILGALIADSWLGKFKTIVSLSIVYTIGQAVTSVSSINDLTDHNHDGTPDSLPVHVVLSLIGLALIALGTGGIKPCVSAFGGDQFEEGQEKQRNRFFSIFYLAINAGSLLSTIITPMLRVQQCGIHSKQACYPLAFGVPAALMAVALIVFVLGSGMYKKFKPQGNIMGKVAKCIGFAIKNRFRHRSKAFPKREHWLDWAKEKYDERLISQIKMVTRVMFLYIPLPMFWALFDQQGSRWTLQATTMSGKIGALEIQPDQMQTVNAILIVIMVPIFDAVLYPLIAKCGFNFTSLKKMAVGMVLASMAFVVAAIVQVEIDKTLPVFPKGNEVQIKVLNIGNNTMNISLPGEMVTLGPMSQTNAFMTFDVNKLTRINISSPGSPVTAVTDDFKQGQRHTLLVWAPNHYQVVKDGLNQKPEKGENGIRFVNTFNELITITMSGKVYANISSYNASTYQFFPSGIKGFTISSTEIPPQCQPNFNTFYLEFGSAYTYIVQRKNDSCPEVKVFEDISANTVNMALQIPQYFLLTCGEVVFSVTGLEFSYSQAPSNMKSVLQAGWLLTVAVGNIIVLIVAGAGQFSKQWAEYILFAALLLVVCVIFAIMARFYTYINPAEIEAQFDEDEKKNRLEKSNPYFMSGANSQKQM

[4] = Testing the solubility of salts of Ile-Thia in distilled water; assay type: physicochemical; settings: H2Odist.
Protocol: Testing the Solubility of Salts of Ile-Thia
Addition of 100 μl H2Odist.

remaining activity at 10 µM [1] | Ki [1] | Structure (SMILES) | also measured
13.6% | 0.27 µM | CC(C)C(N)C(=O)N1CCSC1 (centres unmarked) [H-Val-thiazolidide] | –
100% | > 1000 µM | COc1ccc(Cl)cc1C(=O)NCCc1ccc(S(=O)(=O)NC(=O)NC2CCCCC2)cc1 [glibenclamide, reference compound] | –
25% | 0.61 µM | NC(CCC(=O)O)C(=O)N1CCSC1 (centres unmarked) [H-Glu-thiazolidide] | –
49.7% | 3.5 µM | NC(Cc1c[nH]cn1)C(=O)N1CCCC1 (centres unmarked) [H-His-pyrrolidide] | –
100% | > 1000 µM | CN(C)C(=N)N=C(N)N [metformin, reference compound] | –
100% | > 1000 µM | C[C@H]1O[C@H](O[C@H]2[C@H](O)[C@@H](O)[C@@H](O[C@H]3[C@H](O)[C@@H](O)C(O)O[C@@H]3CO)O[C@@H]2CO)[C@H](O)[C@@H](O)[C@@H]1N[C@H]1C=C(CO)[C@@H](O)[C@H](O)[C@H]1O (some centres unmarked) [acarbose, reference compound] | –
54.5% | 8.8 µM | NC(CC(=O)NO)C(=O)N1CCSC1 (centres unmarked) [H-Asp(NHOH)-thiazolidide] | –
47.2% | 3.5 µM | NC(=O)CC(N)C(=O)N1CCSC1 (centres unmarked) [H-Asn-thiazolidide] | –
– | – | CC[C@@H](C)[C@H](N)C(=O)N1CCSC1 [H-L-allo-Ile-thiazolidide, L-allo-isoleucyl thiazolidide] | Glucose concentration in % L-allo-Ile-thiazolidide-treated ([2]; Wistar rat (diabetes 2b-model, obese)): 73%; Glucose concentration in % L-allo-Ile-thiazolidide-treated ([2]; Wistar rat, normal): 82%; Degree of action with respect to glucose modulation ([2]; in comparison with L-threo-isoleucyl thiazolidide): approximately the same degree of action; Improvement in transport by the peptide transporter Pep T1 [3]: approximately five-fold
45.6% | 2.9 µM | NC(CC(=O)O)C(=O)N1CCSC1 (centres unmarked) [H-Asp-thiazolidide] | –
35.2% | 1.8 µM | NC(Cc1c[nH]cn1)C(=O)N1CCSC1 (centres unmarked) [H-His-thiazolidide] | –
36.5% | 1.7 µM | NC(CCC(=O)NO)C(=O)N1CCSC1 (centres unmarked) [H-Glu(NHOH)-thiazolidide] | –
81.6% | 14 µM | NC(CC(=O)O)C(=O)N1CCCC1 (centres unmarked) [H-Asp-pyrrolidide] | –
– | 2.8 µM | NC(CCC(=O)NO)C(=O)N1CCCC1 (centres unmarked) [H-Glu(NHOH)-pyrrolidide] | % Residual activity of DP IV in the presence of 10 μM effector [1]: 44.9%
83.1% | 12 µM | NC(=O)CC(N)C(=O)N1CCCC1 (centres unmarked) [H-Asn-pyrrolidide] | –
88.2% | 13 µM | NC(CC(=O)NO)C(=O)N1CCCC1 (centres unmarked) [H-Asp(NHOH)-pyrrolidide] | –
– | – | CC[C@H](C)[C@H](N)C(=O)N1CCSC1 [L-threo-IT*F, L-threo-isoleucyl thiazolidide fumarate] | Wettability and decomposition in water [4]: scarcely wettable and does not decompose; Solubility: concentration at complete dissolution ([4]; visual): 2.63%

Structure (SMILES) | remaining activity at 10 µM [1] | Ki [1] | also measured
CC[C@H](C)[C@H](N)C(=O)N1CC1 [H-Ile-azididide] | – | 3.1 µM | % Residual activity of DP IV in the presence of 10 μM effector [1]: 43.8%
